Consider three compounds from ChEMBL document CHEMBL3352657 (J Med Chem, 2014).

Activity calls are given as the source filed them. The calls are words filed in the database; no cut-off is given here.

Test [1] has as its target T1, Neurotensin receptor type 2 (Rattus norvegicus, UniProt Q63384).
T1 sequence (Q63384 whole entry): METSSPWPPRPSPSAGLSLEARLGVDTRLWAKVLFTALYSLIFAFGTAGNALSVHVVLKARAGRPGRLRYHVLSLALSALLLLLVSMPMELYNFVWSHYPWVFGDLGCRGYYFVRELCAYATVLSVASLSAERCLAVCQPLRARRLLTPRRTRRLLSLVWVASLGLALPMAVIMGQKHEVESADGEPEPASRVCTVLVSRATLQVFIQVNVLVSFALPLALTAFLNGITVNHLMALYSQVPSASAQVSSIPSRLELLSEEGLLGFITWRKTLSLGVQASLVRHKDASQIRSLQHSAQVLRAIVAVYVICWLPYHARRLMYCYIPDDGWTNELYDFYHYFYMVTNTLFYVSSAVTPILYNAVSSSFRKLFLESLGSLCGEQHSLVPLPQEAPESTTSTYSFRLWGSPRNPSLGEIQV
Put plainly: Displacement of [125I]neurotensin from rat NTS2 receptor expressed in CHO-K1 cells by competitive binding assay. The test is classed as cell-based. On the technique in general: Loss of bound radioactivity is the signal in a displacement assay; it reports binding, not function.

For test [2], the target named is T1, Neurotensin receptor type 2. Put plainly: Antagonist activity at rat NTS2 receptor expressed in CHO-K1 cells assessed as inhibition of SR142948a-induced calcium mobilization by FLIPR assay. It counts as functional, cell-based. (A change in cytosolic calcium serves as a functional read-out for many receptors and channels.)
In test [3] the target is Neurotensin receptor type 1 (Rattus norvegicus) (UniProt P20789). Put plainly: Agonist activity at rat NTS1 receptor expressed in CHO-K1 cells assessed as calcium mobilization by FLIPR assay. The test is classed as functional, cell-based.
The target is the same in test [4]. Put plainly: Antagonist activity at rat NTS1 receptor expressed in CHO-K1 cells assessed as inhibition of […]-induced calcium mobilization by FLIPR assay. It counts as functional, cell-based.
Test [5] has as its target T1, Neurotensin receptor type 2. Put plainly: Agonist activity at rat NTS2 receptor expressed in CHO-K1 cells assessed as calcium mobilization by FLIPR assay. The test is classed as functional, cell-based.
For test [6], the target named is Neurotensin receptor type 1 (Rattus norvegicus, UniProt P20789). Put plainly: Displacement of [125I]neurotensin from rat NTS1 receptor expressed in CHO-K1 cells by competitive binding assay. It counts as cell-based.

In general, Ki refers to the dissociation constant of the complex between target and ligand, obtained from inhibition or displacement. Read a high Ki as weaker binding. What is called IC50 is the midpoint of a concentration-inhibition curve. By EC50 is commonly meant the concentration that produces a half-maximal response.

Chain of Neurotensin receptor type 1 (P20789 whole entry): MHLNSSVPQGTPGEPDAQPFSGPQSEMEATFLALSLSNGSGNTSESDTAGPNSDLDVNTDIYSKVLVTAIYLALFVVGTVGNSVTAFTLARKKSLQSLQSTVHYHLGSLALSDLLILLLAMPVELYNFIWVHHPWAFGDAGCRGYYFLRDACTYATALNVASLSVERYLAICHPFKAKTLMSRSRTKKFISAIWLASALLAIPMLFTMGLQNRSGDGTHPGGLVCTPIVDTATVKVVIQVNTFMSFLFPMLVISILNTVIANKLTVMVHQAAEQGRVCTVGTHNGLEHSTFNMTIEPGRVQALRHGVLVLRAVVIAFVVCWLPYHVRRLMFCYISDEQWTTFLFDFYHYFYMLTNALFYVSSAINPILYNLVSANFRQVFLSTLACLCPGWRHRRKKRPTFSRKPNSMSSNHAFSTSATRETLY
Chain of Neurotensin receptor type 1 (Rattus norvegicus) (P20789 whole entry): as above

Regarding `Cc1ccc(S(=O)(=O)Nc2ccc3c(ccn3CC(=O)N[C@@H](CC(C)C)C(=O)O)c2)cc1`, the Ki is 1500 nM in test [1] and greater than 30000 nM in test [6]. In test [2], the IC50 is 3320 nM. In addition, the outcome in test [3] was inactive. Besides, the inhibition result in test [4] is “inactive”. In addition, the EC50 entry in test [5] (cho-k1) is given as “Not Active”.
For `COc1cccc(OC)c1-c1cc(C(=O)NC2(C(=O)O)C3CC4CC(C3)CC2C4)nn1-c1ccc(C(=O)N(C)CCCN(C)C)cc1C(C)C` (stereo not drawn), the Ki amounted to 5.8 nM in test [1] and 1.4 nM in test [6]. Besides, the EC50 in test [5] (read-out: EC50) came to 22 nM.
Turning to `Cc1ccc(S(=O)(=O)Nc2ccc3c(c2)c(C(=O)C(F)(F)F)cn3CC(=O)N[C@@H](CC(C)C)C(=O)O)cc1`, the results for the Ki in test [1] and in test [6] were 202 nM and greater than 30000 nM, respectively. In addition, the IC50 in test [2] stood at 38 nM. Besides, the EC50 result in test [5] (cho-k1) was “Not Active”.
